Assay results taken from patent publication US20080312080A1 (priority 2006, published 2008).

test system: Aspergillus parasiticus NRRL 2999; assay type: cell-based

Substance	aflatoxin production inhibition activity (in words)
(S)-3-aminooctanoyl-(S)-3-aminooctanoyl-L-alanine [Example 6]	extremely excellent aflatoxin production inhibition activity
(S)-3-aminooctanoyl-(S)-3-aminooctanoyl-L-proline [Example 8]	extremely excellent aflatoxin production inhibition activity
(S)-3-aminooctanoyl-(S)-3-aminooctanoyl-glycine [Example 4]	extremely excellent aflatoxin production inhibition activity
